Here are results for 83 compounds from PubChem BioAssay AID1645868 (Buhrlage Lab, Dana-Farber Cancer Institute and Novartis …, 2021).

Active and inactive are the calls of the source.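 How the source made its calls: active means maximal percent inhibition of the deubiquitinase OTUD3 of at least 30% across the tested doses; inactive means the rest.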

The assay addresses OTU domain-containing protein 3 (Homo sapiens) (UniProt Q5T2D3). In words: Validation of screening hits, potency titration, in vitro enzymatic, OTU domain-containing protein 3 DUB inhibitors (AID 1645868). The conditions noted are these: purified OTUD3, ubiquitin-rhodamine cleavage fluorescence, 2 h.

Chain of OTU domain-containing protein 3 (Homo sapiens) (Q5T2D3 whole entry, looked up, the tested form may be a part): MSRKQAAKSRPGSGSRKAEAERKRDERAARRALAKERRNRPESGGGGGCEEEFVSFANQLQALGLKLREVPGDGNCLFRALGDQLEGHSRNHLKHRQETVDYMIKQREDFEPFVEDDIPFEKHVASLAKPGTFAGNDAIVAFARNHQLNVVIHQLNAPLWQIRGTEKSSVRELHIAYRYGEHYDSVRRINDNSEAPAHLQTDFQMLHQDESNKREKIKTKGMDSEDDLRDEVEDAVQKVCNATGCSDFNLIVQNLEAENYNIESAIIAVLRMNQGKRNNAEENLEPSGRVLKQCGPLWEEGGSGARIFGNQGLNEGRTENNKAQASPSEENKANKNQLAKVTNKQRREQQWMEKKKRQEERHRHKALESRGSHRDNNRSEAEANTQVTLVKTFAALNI

Take `O=C(Nc1ccccc1)C1CCCN(C(=O)c2cc3ccccc3[nH]2)C1` (stereo not drawn): the IC50 was 43.2 µM.

With `O=C(O)CCCCCN1C(=O)CC(c2ccc(Cl)cc2)CC1=O`, the IC50 was 46.9 µM.

For the compound `CCn1c(SCC(=O)N2c3ccccc3CC2C)nnc1-c1ccc2c(c1)OCCO2` (stereo not drawn), the IC50 was > 50 µM (inactive).

As to `Cc1ccc2c(c1)c(=O)c(C(=O)c1ccccc1)cn2CC(=O)Nc1ccc2c(c1)OCCO2`, the IC50 is 14.2 µM.

Turning to `O=C(Nc1ccc2c(c1)OCCO2)c1ccc(N2CCCC2=O)cc1`, the IC50 is > 50 µM (inactive).

In the case of `CCc1ccccc1NC(=O)c1cc(-c2ccccn2)n[nH]1`, the IC50 is > 50 µM (inactive).

`FC(F)(F)c1ccccc1CCN1CCc2nc3ccc(Cl)cc3cc2C1`: the IC50 is > 50 µM (inactive).

With `Cc1cc(C)c2c(-n3cccc3)c(C(=O)NCCc3ccc(S(N)(=O)=O)cc3)sc2n1`, the IC50 was > 50 µM (inactive).

As to `COc1cccc(Cn2nc3n(CC(C)C)c(=O)c4ccc(C(=O)NCC(C)C)cc4n3c2=O)c1`, the IC50 was 10.2 µM.

Turning to `CCN1C(=O)c2cccnc2Sc2cc(NC(=O)c3ccc(Cl)s3)ccc21`, the IC50 was > 50 µM (inactive).

`CN(C)S(=O)(=O)c1ccc(N2CCCC2)c(C(=O)Nc2ccc(-c3cn4ccsc4n3)cc2)c1`: the IC50 is > 50 µM (inactive).

On to `CCCc1nc2sc3c(NCCc4ccc(OC)c(OC)c4)ncnc3c2c2c1CCC2`, for which the IC50 was > 50 µM (inactive).

As for `Cc1ccc2c(=O)c3c([nH]c2c1C)CCN(CC(=O)NCc1ccc2c(c1)OCO2)C3`, the IC50 is > 50 µM (inactive).

On to `Oc1cc(OCc2cccc(C(F)(F)F)c2)ccc1-c1ccn[nH]1`, for which the IC50 was 45 µM.

Consider `Clc1cccc(N2CCN(c3ncnc4nc[nH]c34)CC2)c1`, for which the IC50 was > 50 µM (inactive).

In the case of `Cc1sc(-c2ccc(Cl)nc2)nc1OC(=O)c1ccc(F)cc1F`, the IC50 is > 50 µM (inactive).

For `NS(=O)(=O)c1ccc(NS(=O)(=O)c2ccc(NC(=O)Nc3ccc(Cl)cc3)cc2)cc1`, the half-inhibitory concentration (IC50) was 38.2 µM.

In the case of `CC(C)NC(=O)CN1C(=O)CC(C)Sc2ccc(S(=O)(=O)N3CCCCC3)cc21` (stereo not drawn), the IC50 is 31.7 µM.

`COc1ccc(CCNC(=O)CCCCn2c(=O)c3ccccc3n(Cc3cccc(Cl)c3)c2=O)cc1OC`: the IC50 was 29.9 µM.

With `CC(CCc1ccccc1)NC(=O)Cn1c(=O)c2cccn2c2ccccc21` (stereo not drawn), the IC50 is 33.5 µM.

On to `COc1ccccc1CNC(=O)CCCn1c(=O)c2ccccc2n(CC(=O)N2CCN(c3ccccc3)CC2)c1=O`, for which the IC50 was 25.5 µM.

`CCCC[C@@H](C)/C=C(C)/C=C(\C)C(=O)NC1=C[C@](O)(/C=C/C=C/C=C/C(=O)NC2=C(O)CCC2=O)[C@@H]2O[C@@H]2C1=O`: the IC50 was 3.28 µM.

Take `Cc1cc(-n2c(C)cc(-c3csc(N)n3)c2C)no1`: the IC50 is > 50 µM (inactive).

Regarding `CC(C)=CCC/C(C)=C/Cc1c(O)cc2c(c1O)C(=O)OC2`, the concentration for half-maximal inhibition (IC50) was 3.25 µM.

Consider `Cc1ccc(-c2nnc(-n3ncc(C#N)c3N)c3ccccc23)cc1C`, for which the IC50 was > 50 µM (inactive).

For the compound `CC1=CC(=O)C(C2=C(O)C(=O)C(C)=CC2=O)=C(O)C1=O`, the IC50 was 25.6 µM.

Regarding `CN(Cc1ccccc1)S(=O)(=O)c1ccc2[nH]cc(C(=O)NCc3cccs3)c(=O)c2c1`, the IC50 was 3.15 µM.

Consider `COc1ccc(-c2cc(C(=O)NC3CCCCCC3)[nH]n2)cc1S(=O)(=O)N(C)C`, for which the IC50 is > 50 µM (inactive).

Turning to `O=S(=O)(c1cccc(F)c1)N1CCN(c2nnnn2-c2ccccc2)CC1`, the IC50 was > 50 µM (inactive).

Take `CC(C)(C)c1cc(CCC(=O)Nc2c3c(nc4c2CCC4)CCCC3)cc(C(C)(C)C)c1O`: the IC50 is > 50 µM (inactive).

As to `Cc1noc(NS(=O)(=O)c2ccc(NC(=O)CSc3ccc4ccccc4c3)cc2)c1C`, the IC50 is > 50 µM (inactive).

In the case of `O=C(COc1ccc(S(=O)(=O)N2CCOCC2)cc1)N1CCC(Cc2ccccc2)CC1`, the IC50 is > 50 µM (inactive).

Turning to `O=C(CC1C(=O)N(Cc2cccnc2)c2nc3ccccc3n21)Nc1cccc2ccccc12` (stereo not drawn), the IC50 is > 50 µM (inactive).

For `CC(Sc1n[nH]c2nc3ccccc3n12)C(=O)Nc1ccc2c(c1)OCCO2` (stereo not drawn), the IC50 is > 50 µM (inactive).

Take `O=C(OCCCN1C(=O)c2cccc3c(N4CCCCC4)ccc(c23)C1=O)c1ccccn1`: the IC50 is > 50 µM (inactive).

Take `Cc1nc(Nc2c3ccccc3nc3ccccc23)sc1C`: the IC50 was > 50 µM (inactive).

As to `CC(C)(C)C(=O)[C@@H]1[C@@H](C(=O)c2ccc3c(c2)OCO3)[C@@]2(C(=O)Nc3ccccc32)[C@H]2c3ccccc3C=CN12`, the IC50 was > 50 µM (inactive).

`COc1ccc(-c2cc(C(=O)N3CCN(c4ccc([N+](=O)[O-])cc4)CC3)[nH]n2)cc1`: the IC50 is > 50 µM (inactive).

`Cc1ccc(Cl)cc1NC(=O)COC(=O)c1ccc2ccccc2n1`: the IC50 is > 50 µM (inactive).

`O=C1CC(C(=O)Nc2ccccc2Cl)n2nc(-c3ccccc3)cc2N1` (stereo not drawn): the IC50 is 34 µM.

Consider `Cc1ccc2c(c1)N=C(c1ccc([N+](=O)[O-])cc1)CO2`, for which the IC50 is > 50 µM (inactive).

As to `COc1ccc(NC(=O)Cn2cc(C(=O)c3ccc(F)cc3)c(=O)c3cc(C)ccc32)cc1`, the IC50 is 23.2 µM.

Turning to `O=C(CSc1nnnn1-c1ccccc1)Nc1ccccc1`, the IC50 is > 50 µM (inactive).

With `COc1ccccc1NC(=O)CSC1=NC2(CCCCC2)Nc2ccccc21`, the IC50 is > 50 µM (inactive).

Take `Cc1cc2c(cc1C)NC(CC(=O)Nc1ccc(O)cc1)C(=O)N2` (stereo not drawn): the IC50 is 30.8 µM.

As for `Cc1cccc(-c2nc3n(CC(=O)Nc4ccc(Cl)cc4)c(C)cc(=O)n3n2)c1`, the IC50 is 2 µM.

Consider `COc1c(C)c(C(O)C(C)O)c2[nH]c3ccc(CC=C(C)C)cc3c2c1O` (stereo not drawn), for which the IC50 is 25.6 µM.

Take `Cc1ccc(NC2=NC(c3ccco3)n3c(nc(C)cc3=O)N2)c(C)c1` (stereo not drawn): the IC50 is > 50 µM (inactive).

For `Cc1cnnn1-c1ccc(C(=O)Nc2ccc(Cl)cc2)cc1`, the IC50 is > 50 µM (inactive).

Regarding `O=C(NCc1nc(-c2ccc3c(c2)[nH]c(=O)n3C2CCCC2)no1)c1ccccc1`, the IC50 was > 50 µM (inactive).

Consider `Cc1ccc2[nH]c(=O)c(CN(CC3COCCO3)S(=O)(=O)c3ccc(F)cc3)cc2c1` (stereo not drawn), for which the IC50 is 18.9 µM.

Consider `CCOc1ccc(CCNC(=O)CCC(=O)Nc2ccc3nc(N4CCN(C)CC4)cc(C)c3c2)cc1OCC`, for which the IC50 was > 50 µM (inactive).

As for `Cc1cc(/C=C2/C(=N)N3C(c4ccccc4)=CSC3=NC2=O)c(C)n1-c1ccc2ccccc2c1`, the IC50 is > 50 µM (inactive).

Consider `Cc1cccc(COc2ccc(C3SCC(=O)Nc4n[nH]c(C)c43)cc2)c1` (stereo not drawn), for which the 50% inhibitory concentration (IC50) is 15.5 µM.

For the compound `O=C(CC(C(=O)Nc1ccc2c(c1)OCO2)C(=O)c1ccccc1)Nc1ccc(Cl)cc1F` (stereo not drawn), the IC50 was 15.4 µM.

As to `O=C(COc1nsnc1N1CCOCC1)Nc1ccc(F)c(F)c1`, the IC50 is > 50 µM (inactive).

Regarding `O=c1[nH]c(C2CCN(S(=O)(=O)c3ccc(S(=O)(=O)NC4CCCC4)cc3)CC2)nc2c1nnn2Cc1cccc(Cl)c1`, the IC50 was > 50 µM (inactive).

For the compound `O=C(Nc1ccc(F)c(Cl)c1)c1ccc(N2CCCCS2(=O)=O)cc1Cl`, the IC50 was > 50 µM (inactive).

As for `Cc1nn(-c2ccccc2)c2c1N=C1C(Cl)=CC(Cl)=CN1C21C(=O)Nc2ccccc21` (stereo not drawn), the IC50 is > 50 µM (inactive).

For the compound `Cc1ccc(OC(=O)c2cn(-c3ccccc3)nc2-c2cccnc2)cc1`, the IC50 is > 50 µM (inactive).

As to `COc1ccc(-c2cc3nc([C@H](C)NC(=O)Cc4cccc(F)c4)nn3cn2)cc1`, the half-maximal inhibitory concentration (IC50) was 15.8 µM.

Regarding `Cc1cnc2nc3c(cc2c1)CN(CCc1ccc(Cl)cc1)CC3`, the IC50 was > 50 µM (inactive).

Consider `O=C1Nc2c(Cl)cc(Cl)cc2C1(O)c1sc(NC2CCCCC2)nc1-c1ccccc1` (stereo not drawn), for which the IC50 is 29.4 µM.

In the case of `O=C(c1ccco1)N1CCN=C1SCc1ccccc1F`, the IC50 is > 50 µM (inactive).

In the case of `COc1ccc2c(c1)c(N1CCCC1=O)c(C(=O)NCc1cccc(OC)c1OC)n2C`, the IC50 was > 50 µM (inactive).

For the compound `Cc1ccc2c(c1)N(Cc1nc(-c3ccc(F)cc3)no1)C(=O)CO2`, the IC50 is > 50 µM (inactive).

As for `Cc1cc(C)cc(NC(=O)CN2C(=O)CC(c3ccccc3)Sc3ccccc32)c1` (stereo not drawn), the IC50 was > 50 µM (inactive).

For the compound `Cc1nn(-c2ccc(F)cc2)cc1-c1noc(C(=O)NCc2ccccn2)n1`, the IC50 was 25.1 µM.

As to `COc1ccc(C2C(C(=O)C(C)(C)C)N3c4ccccc4C=CC3C23C(=O)c2ccccc2C3=O)c(OC)c1` (stereo not drawn), the IC50 was > 50 µM (inactive).

For `O=C(CSc1nnc2n1CCCCC2)Nc1ccc2[nH]c(=O)[nH]c2c1`, the IC50 was > 50 µM (inactive).

For `Cc1cc(=O)n(CC(=O)Nc2ccccc2F)c(Nc2ccc(F)cc2)n1`, the IC50 is 16.3 µM.

Turning to `CCOc1ccc(NC(=O)c2nc3c(=O)[nH]c4cc(C)ccc4n3n2)cc1`, the IC50 was > 50 µM (inactive).

For `CCOC(=O)c1sc2nc(CC(=O)OC)nc(NCc3ccco3)c2c1C`, the IC50 was > 50 µM (inactive).

For the compound `CCCNC(=O)c1ccn(-c2ccc3ccc(-c4cnn(C)c4)cn23)n1`, the IC50 was > 50 µM (inactive).

On to `CC(C)Cc1cc(-c2nnc3sc(-c4ccco4)nn23)n[nH]1`, for which the IC50 was > 50 µM (inactive).

On to `Cc1nnc(NC(=O)C2CCN(c3ccc(S(N)(=O)=O)cc3[N+](=O)[O-])CC2)o1`, for which the IC50 was 15.6 µM.

On to `CCc1ccc(OCc2nnc(SCC(=O)Nc3ccccc3OC)n2Cc2ccccc2)cc1`, for which the IC50 is > 50 µM (inactive).

`COc1cccc(NC(=O)C2Cn3ccnc3C3(CCN(C(C)=O)CC3)O2)c1` (stereo not drawn): the IC50 is > 50 µM (inactive).

For `Clc1ccc(C[n+]2cc(-c3ccc(Cl)cc3)n3c2CCC3)cc1`, the IC50 is > 50 µM (inactive).

Turning to `O=C1CN(C(=O)COC(=O)CCCN2C(=O)c3cccc4cccc(c34)C2=O)c2ccccc2N1`, the IC50 is > 50 µM (inactive).

Turning to `O=C(Nc1oc2ccccc2c(=O)c1-c1ccc2c(c1)OCO2)C1CCCCC1`, the IC50 is > 50 µM (inactive).

For `CCC(C)(C)C1CCC2(CC1)N=C(N)Nc1nc3ccccc3n12` (stereo not drawn), the IC50 is > 50 µM (inactive).

Turning to `CCc1nc(N2CCCC2=O)sc1C(=O)Nc1cccc(C(C)=O)c1`, the IC50 was > 50 µM (inactive).

As a reminder, the IC50 is the concentration that inhibits the measured activity by half.
